Experimental data published in paper PMC7967019 (Slas Discovery, 2022).
pEC50, pIC50: −log10 of the molar value.

How the values were obtained:
SARS-CoV-2 nsp14 [1] = molecular target: T1, SARS-CoV-2 nsp14 (Severe acute respiratory syndrome coronavirus 2, UniProt P0DTD1); assay: Nsp14 RapidFire MS high-throughput screening assay; format: biochemical
nsp14 N7-MTase = conditions: read-out: IC50 nsp14 N7-MTase activity; cited from earlier work
SAR-CoV = conditions: cited from earlier work
[2] = molecular target: human homolog RNA RNMT (RNMT:RAM) (Homo sapiens, UniProt O43148); assay: RNMT assay under similar conditions to the nsp14 RapidFire assay; format: biochemical
SARS-CoV-2 nsp14 [3] = molecular target: T1, SARS-CoV-2 nsp14; assay: biochemical; format: biochemical
SARS-CoV-2 = conditions: read-out: EC50 blocking SARS-CoV-2 in vitro infections; cited from earlier work
[4] = humans; with minimal gastrointestinal side effects; cited from earlier work
[5] = hydrolysis to the active metabolite tizoxanide; cited from earlier work

Sequence of human homolog RNA RNMT (RNMT:RAM) (O43148 whole entry): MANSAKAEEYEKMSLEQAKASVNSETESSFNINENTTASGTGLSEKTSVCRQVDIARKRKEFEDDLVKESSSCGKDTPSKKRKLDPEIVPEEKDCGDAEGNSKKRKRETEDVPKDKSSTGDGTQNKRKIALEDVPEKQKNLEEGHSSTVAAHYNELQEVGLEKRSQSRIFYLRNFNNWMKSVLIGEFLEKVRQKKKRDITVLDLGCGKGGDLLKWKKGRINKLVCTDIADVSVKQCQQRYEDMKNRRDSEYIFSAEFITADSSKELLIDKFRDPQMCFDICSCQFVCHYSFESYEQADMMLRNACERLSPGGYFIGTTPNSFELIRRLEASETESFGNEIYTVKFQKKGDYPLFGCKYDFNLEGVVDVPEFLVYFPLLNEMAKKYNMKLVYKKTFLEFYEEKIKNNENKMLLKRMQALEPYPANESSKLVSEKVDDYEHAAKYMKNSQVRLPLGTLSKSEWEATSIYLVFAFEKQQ
Sequence of human homolog RNA RNMT (RNMT:RAM) (Q9BTL3 1-90 partner limits assumed): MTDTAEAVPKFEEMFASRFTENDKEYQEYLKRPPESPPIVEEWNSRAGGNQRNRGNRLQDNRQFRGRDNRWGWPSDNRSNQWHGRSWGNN

In the case of O=C1C=CC(=O)N1c1cccc(F)c1 [N-(3-fluorophenyl)maleimide], the “percentage effect on nsp14 activity” value (SARS-CoV-2 nsp14 [1]; single concentration of 10 µM) was “greater than 50%”.

In the case of Nc1ncnc2c1ncn2[C@@H]1O[C@H](CSCC[C@H](N)C(=O)O)[C@@H](O)[C@H]1O [S-adenosyl-L-homocysteine], the pIC50 (nsp14 N7-MTase) is listed as 4.80.

In the case of O=C(O)C1=CC(=C(c2ccc(O)c(C(=O)O)c2)c2ccc(O)c(C(=O)O)c2)C=CC1=O [aurintricarboxylic acid], the pIC50 (nsp14 N7-MTase) is given as 5.19 and the “effect on SAR-CoV replication in infected cells” value (SAR-CoV) is given as “limit SAR-CoV replication in infected cells”.

Compound O=c1c(O)c(-c2ccc(O)cc2)oc2cc(O)cc(O)c12 [kaempferol] has a pIC50 (SARS-CoV-2 nsp14 [1]) of 4.55.

CC(=O)Oc1ccccc1C(=O)Nc1ncc([N+](=O)[O-])s1 [nitazoxanide] gave an Emax at 100 µM (SARS-CoV-2 nsp14 [1]; read-out: maximal effect, dose response, top concentration 100 µM) of 89.7%, a pIC50 [2] of less than 4.00 and a pIC50 (SARS-CoV-2 nsp14 [3]) of 3.88. For the same compound, the “inhibition of N7-guanosine cap methylation” value (SARS-CoV-2 nsp14 [3]) was “Forty-nine”, the “shift in activity between cap MTase assay and primary biochemical assay” value (SARS-CoV-2 nsp14 [3]; orthogonal versus RapidFire assay) was 10 fold and the pEC50 (SARS-CoV-2) was 5.67. The tolerated single dose [4] was “up to 4 g” and the “metabolic fate following oral administration” value [5] was “rapidly hydrolyzed”.

For O=C(Nc1ncc([N+](=O)[O-])s1)c1ccccc1O [tizoxanide], the pIC50 (SARS-CoV-2 nsp14 [1]) was 4.26.
